In patent publication US11230555B2, “Bicyclic RORγ modulators” (Escalier Biosciences B.V., priority 2018, dated 2022):

Biological target: T1, RORγt (Homo sapiens, UniProt P51449)
T1 construct: purchased reporter-cell kit
T1 sequence (P51449 269-508 limits assumed): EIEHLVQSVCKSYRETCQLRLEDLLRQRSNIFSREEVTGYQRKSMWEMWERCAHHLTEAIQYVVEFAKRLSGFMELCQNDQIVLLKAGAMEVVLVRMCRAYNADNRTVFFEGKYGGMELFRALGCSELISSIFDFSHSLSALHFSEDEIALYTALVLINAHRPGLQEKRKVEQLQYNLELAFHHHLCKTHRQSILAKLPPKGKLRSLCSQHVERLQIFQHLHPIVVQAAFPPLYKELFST
Experiment: Gal4 ligand binding assay (RORγt Gal fusion reporter assay)
Type: cell-based
Details: inverse agonists, luciferase reporter, 24h
Procedure: Compounds of the present invention were tested in a human RORγ ligand binding assay using a commercially available cell based ligand binding reporter assay in 96-well format (Cat #IB04001, INDIGO Biosciences, State College, Pa.). The N-terminal DNA binding domains (DBD) of the native RORγ and RORγt receptors have been substituted with that of the yeast GAL4-DBD and stably transfected in […] cells that also stably express luciferase under the regulation by upstream activation sequence of yeast Gal4. These cells constitutively express high level RORγ activity due to binding of endogenous co-factors. Both agonist and inverse agonist activity can be detected. The assay was performed according to kit manufacturer's instructions as follows. 10 mM compound stocks were diluted serially 1:3 with DMSO and further diluted with provided media to generate 10 titration points from 60 μM to 3 nM. These treatment conditions were added to the plates as 2× media in 100 μL volume. Each plate includes a positive control with 10 titration points as well as 6negative control wells with vehicle only, with final DMSO concentration of 0.2%. RORγ reporter cells were rapidly thawed and added to the plates in 100 μL volume. The plates were incubated for 24h in a 37° C. humidified 5% CO2incubator. Media was removed before the addition of room temperature luciferous detection substrate. After 5 minute incubation, relative light units (RLUs) were quantified using a plate reading luminometer. Data was normalized to positive control wells with only […]. Before establishing internal controls, ursolic acid was used as control.

Row | SMILES | IC50
1 | CC(C)c1cc(CN2CC3CCC(C2)N3S(C)(=O)=O)ccc1-c1ccc(C(O)(C(F)(F)F)C(F)(F)F)cc1Cl [Example 22, 2-(2-chloro-2′-isopropyl-4′-((8-(methylsulfonyl)-3,8-diazabicyclo[3.2.1]octan-3-yl)methyl)-[1,1′-biphenyl]-4-yl)-1,1,1,3,3,3-hexafluoropropan-2-ol] | 50 to 250 nM
2 | CCc1c(F)c(CN2CC3CCC(C2)N3S(C)(=O)=O)cc(F)c1-c1ccc(C(O)(C(F)(F)F)C(F)(F)F)cc1F [Example 23, 2-(2′-ethyl-2,3′,6′-trifluoro-4′-((8-(methylsulfonyl)-3,8-diazabicyclo[3.2.1]octan-3-yl)methyl)-[1,1′-biphenyl]-4-yl)-1,1,1,3,3,3-hexafluoropropan-2-ol] | < 50 nM
3 | CCc1cc(CN2CC3CCC(C2)N3S(C)(=O)=O)ccc1-c1ccc(C(O)(C(F)(F)F)C(F)(F)F)cc1F [Example 24, 2-(2′-ethyl-2-fluoro-4′-((8-(methylsulfonyl)-3,8-diazabicyclo[3.2.1]octan-3-yl)methyl)-[1,1′-biphenyl]-4-yl)-1,1,1,3,3,3-hexafluoropropan-2-ol] | < 50 nM
4 | CCc1cc(CN2CC3CCC(C2)N3S(C)(=O)=O)ccc1-c1ccc(C(O)(C(F)(F)F)C(F)(F)F)cc1CC [Example 25, 2-(2,2′-diethyl-4′-((8-(methylsulfonyl)-3,8-diazabicyclo[3.2.1]octan-3-yl)methyl)-[1,1′-biphenyl]-4-yl)-1,1,1,3,3,3-hexafluoropropan-2-ol] | < 50 nM
5 | CCc1cc(C(O)(C(F)(F)F)C(F)(F)F)ccc1-c1ccc(CN2CC3CCC(C2)N3S(C)(=O)=O)cc1C [Example 26, 2-(2-ethyl-2′-methyl-4′-((8-(methylsulfonyl)-3,8-diazabicyclo[3.2.1]octan-3-yl)methyl)-[1,1′-biphenyl]-4-yl)-1,1,1,3,3,3-hexafluoropropan-2-ol] | < 50 nM
6 | CCc1cc(CN2CC3CCC(C2)N3S(C)(=O)=O)ccc1-c1ccc(C(O)(C(F)(F)F)C(F)(F)F)cc1Cl [Example 27, 2-(2-chloro-2′-ethyl-4′-((8-(methylsulfonyl)-3,8-diazabicyclo[3.2.1]octan-3-yl)methyl)-[1,1′-biphenyl]-4-yl)-1,1,1,3,3,3-hexafluoropropan-2-ol] | < 50 nM
7 | CCc1c(-c2ccc(C(O)(C(F)(F)F)C(F)(F)F)cc2C)cc(F)c(CN2CC3CCC(C2)N3S(C)(=O)=O)c1F [Example 28, 2-(2′-ethyl-3′,5′-difluoro-2-methyl-4′-((8-(methylsulfonyl)-3,8-diazabicyclo[3.2.1]octan-3-yl)methyl)-[1,1′-biphenyl]-4-yl)-1,1,1,3,3,3-hexafluoropropan-2-ol] | < 50 nM
8 | CCc1cc(CN2CC3CCC(C2)N3S(C)(=O)=O)c(F)c(F)c1-c1ccc(C(O)(C(F)(F)F)C(F)(F)F)cc1C [Example 29, 2-(6′-ethyl-2′,3′-difluoro-2-methyl-4′-((8-(methylsulfonyl)-3,8-diazabicyclo[3.2.1]octan-3-yl)methyl)-[1,1′-biphenyl]-4-yl)-1,1,1,3,3,3-hexafluoropropan-2-ol] | < 50 nM
9 | CCc1c(F)c(CN2CC3CCC(C2)N3S(C)(=O)=O)cc(F)c1-c1ccc(C(O)(C(F)(F)F)C(F)(F)F)cc1C [Example 30, 2-(2′-ethyl-3′,6′-difluoro-2-methyl-4′-((8-(methylsulfonyl)-3,8-diazabicyclo[3.2.1]octan-3-yl)methyl)-[1,1′-biphenyl]-4-yl)-1,1,1,3,3,3-hexafluoropropan-2-ol] | < 50 nM
10 | CCc1cc(CN2CC3CCC(C2)N3S(C)(=O)=O)ccc1-c1ccc(C(O)(C(F)(F)F)C(F)(F)F)cc1C(N)=O [Example 31, 2′-ethyl-4-(1,1,1,3,3,3-hexafluoro-2-hydroxypropan-2-yl)-4′-((8-(methylsulfonyl)-3,8-diazabicyclo[3.2.1]octan-3-yl)methyl)-[1,1′-biphenyl]-2-carboxamide] | > 250 nM
11 | CCc1cc(CN2CC3CCC(C2)N3S(C)(=O)=O)ccc1-c1ccc(C(O)(C(F)(F)F)C(F)(F)F)cn1 [Example 32, 2-(6-(2-ethyl-4-((8-(methylsulfonyl)-3,8-diazabicyclo[3.2.1]octan-3-yl)methyl)phenyl)pyridin-3-yl)-1,1,1,3,3,3-hexafluoropropan-2-ol] | 50 to 250 nM
12 | CCc1cc(CN2CC3CCC(C2)N3S(C)(=O)=O)cnc1-c1ccc(C(O)(C(F)(F)F)C(F)(F)F)cc1C [Example 33, 2-(4-(3-ethyl-5-((8-(methylsulfonyl)-3,8-diazabicyclo[3.2.1]octan-3-yl)methyl)pyridin-2-yl)-3-methylphenyl)-1,1,1,3,3,3-hexafluoropropan-2-ol] | > 250 nM
13 | CCc1cc(CN2CC3CCC(C2)N3S(C)(=O)=O)ccc1-c1ccc(C(O)(C(F)(F)F)C(F)(F)F)cc1C [Example 34, 2-(2′-ethyl-2-methyl-4′-((8-(methylsulfonyl)-3,8-diazabicyclo[3.2.1]octan-3-yl)methyl)-[1,1′-biphenyl]-4-yl)-1,1,1,3,3,3-hexafluoropropan-2-ol] | < 50 nM
14 | Cc1cc(C(O)(C(F)(F)F)C(F)(F)F)ccc1-c1ccc(CN2CC3CCC(C2)N3S(C)(=O)=O)cc1C(C)C [Example 35, 1,1,1,3,3,3-hexafluoro-2-(2′-isopropyl-2-methyl-4′-((8-(methylsulfonyl)-3,8-diazabicyclo[3.2.1]octan-3-yl)methyl)-[1,1′-biphenyl]-4-yl)propan-2-ol] | 50 to 250 nM
15 | Cc1cc(CN2CC3CCC(C2)N3c2noc(C(C)(C)C)n2)ccc1-c1ccc(C(O)(C(F)(F)F)C(F)(F)F)cc1 [Example 36, 2-(4′-((8-(5-(tert-butyl)-1,2,4-oxadiazol-3-yl)-3,8-diazabicyclo[3.2.1]octan-3-yl)methyl)-2′-methyl-[1,1′-biphenyl]-4-yl)-1,1,1,3,3,3-hexafluoropropan-2-ol] | > 250 nM
16 | CCc1cc(CN2CC3CCC2CN3S(C)(=O)=O)ccc1-c1ccc(C(O)(C(F)(F)F)C(F)(F)F)cc1 (stereo not shown) [Example 37, 2-(2′-ethyl-4′-((5-(methylsulfonyl)-2,5-diazabicyclo[2.2.2]octan-2-yl)methyl)-[1,1′-biphenyl]-4-yl)-1,1,1,3,3,3-hexafluoropropan-2-ol] | 50 to 250 nM
17 | CCc1cc(CN2CC3CC2CN3S(C)(=O)=O)ccc1-c1ccc(C(O)(C(F)(F)F)C(F)(F)F)cc1 (stereo not shown) [Example 38, 2-(2′-ethyl-4′-((5-(methylsulfonyl)-2,5-diazabicyclo[2.2.1]heptan-2-yl)methyl)-[1,1′-biphenyl]-4-yl)-1,1,1,3,3,3-hexafluoropropan-2-ol] | < 50 nM
18 | CCc1cc(CN2CC3CCC(C2)N3C(C)=O)ccc1-c1ccc(C(O)(C(F)(F)F)C(F)(F)F)cc1 [Example 39, 1-(3-((2-ethyl-4′-(1,1,1,3,3,3-hexafluoro-2-hydroxypropan-2-yl)-[1,1′-biphenyl]-4-yl)methyl)-3,8-diazabicyclo[3.2.1]octan-8-yl)ethan-1-one] | < 50 nM
19 | CS(=O)(=O)N1C2CCC1CN(Cc1ccc(-c3ccc(C(O)(C(F)(F)F)C(F)(F)F)cc3)c(Br)c1)C2 [Example 40, 2-(2′-bromo-4′-((8-(methylsulfonyl)-3,8-diazabicyclo[3.2.1]octan-3-yl)methyl)-[1,1′-biphenyl]-4-yl)-1,1,1,3,3,3-hexafluoropropan-2-ol] | 50 to 250 nM
